In the NIST ThermoML archive (doi:10.1016/j.jct.2009.10.003):
Numbers after ± are expanded uncertainties.

How the values were obtained:
[1] = Molar enthalpy of transition or fusion; details: Crystal; DSC
[2] = molar heat capacity at constant pressure; details: 298.15 K; 101.33 kPa; Liquid; Small sample (50 mg) DSC
[3] = Crystal; DTA

| Structure (SMILES) | Molar enthalpy of transition or fusion [1] | molar heat capacity at constant pressure [2] | Normal melting temperature [3] |
| --- | --- | --- | --- |
| NS(=O)(=O)c1ccccc1[N+](=O)[O-] [2-nitrobenzenesulfonamide] | 28.3 ± 0.65 kJ/mol | 179.54 ± 8.5 J/K/mol | 189.92 ± 0.39 °C |
| NS(=O)(=O)c1cccc([N+](=O)[O-])c1 [3-nitrobenzenesulfonamide] | 31.5 ± 0.74 kJ/mol | 199.96 ± 8.5 J/K/mol | 164.00 ± 0.39 °C |
| NS(=O)(=O)c1ccc([N+](=O)[O-])cc1 [4-nitrobenzenesulfonamide] | 29.8 ± 0.65 kJ/mol | 219.98 ± 13 J/K/mol | 180.46 ± 0.39 °C |
